In assay [1] the test system is surrogate whole blood control. Briefly: Clotting time of surrogate whole blood control on PoC Coagulometer, benzamidine in activation solution (Example 4). The following applies: for Clotting time: 22 mM CaCl2. Also on record: species or system horse, sheep. As to the method:
(§1) Plasma was prepared by mixing sheep plasma and horse plasma at a mixing ratio of 1:9. Sheep fibrinogen solution (45.72 mg/mL in 20 mM sodium citrate-HCl, pH 7.4) was diluted to 40 mg/mL with saline. Plasma base was further prepared by mixing 77% (w/v) plasma and 23% (w/v) sheep fibrinogen solution (40 mg/mL). Whole blood control was prepared by resuspending 35% (w/v) 3% glutaraldehyde-fixed horse red blood cells in 65% (w/v) plasma base, with addition of rabbit brain cephalin to a final concentration of 0.144 mg/mL. The whole blood control was then freeze-thawed once and freeze-dried in glass vials. To test the effect of benzamidine concentration in activation solution on clotting time, the freeze-dried surrogate whole blood control was reconstituted in a diluent solution to half of its original volume, incubated at room temperature for 6 minutes, and mixed by swirling the glass vial gently for an additional 1 minute. The control was then activated by addition of an activation solution containing 22 mM CaCl2) and varying concentrations of benzamidine at the volume ratio of 1:1, followed by six times of rapid inversion. The samples were tested on Perosphere Technologies' PoC Coagulometers immediately after activation.

Assay [2] deals with surrogate whole blood control. Briefly: Clotting time of surrogate whole blood control on PoC Coagulometer, benzamidine in lyophilizate (Example 2). Also on record: species or system horse, sheep. The following applies: for Clotting time: activated with 22 mM calcium chloride. As to the method:
Plasma was prepared by mixing sheep plasma and horse plasma at a mixing ratio of 1:9. Sheep fibrinogen solution (45.72 mg/mL in 20 mM sodium citrate-HCl, pH 7.4) was diluted to 40 mg/mL with saline. Plasma base was further prepared by mixing 77% (w/v) plasma and 23% (w/v) sheep fibrinogen solution (40 mg/mL). Whole blood control was prepared by resuspending 35% (w/v) 2% glutaraldehyde-fixed horse red blood cells in 65% (w/v) plasma base, with addition of rabbit brain cephalin to a final concentration of 0.144 mg/mL. Benzamidine of varying concentrations were added to the preparation. The whole blood control was then freeze-dried in glass vials. To test the effect of benzamidine in lyophilizate on clotting time, the freeze-dried surrogate whole blood control was reconstituted in a diluent solution to half of its original volume, incubated at room temperature for 6 minutes, and mixed by swirling the glass vial gently for an additional 1 minute. The control was then activated by addition of 22 mM calcium chloride at the volume ratio of 1:1, followed by six times of rapid inversion. The samples were tested on Perosphere Technologies' PoC Coagulometers immediately after activation.

Assay [3] has as its system surrogate whole blood control. As to the method:
as §1, with “mg/mL by” for “mg/mL with”, “(w/v) 2%” for “(w/v) 3%”, “of calcium chloride” for “of benzamidine”, “of calcium chloride” for “of an activation”, “solution of” for “solution containing 22 mM CaCl2) and”, “concentrations” for “concentrations of benzamidine”

Where two headings read alike, the source gives them in different places.

With `N=C(N)c1ccccc1` [Benzamidine, benzamidine], in assay [1] (0-6.6 mM in activation solution, FIG. 2), the “Response of clotting time to benzamidine concentration in activation solution” value is given as “linear response”. The Clotting time in assay [1] (benzamidine concentration in activation solution 1.1 mM) came to 206.00 s; in assay [1] (benzamidine concentration in activation solution 2.2 mM) it was 249.00 s; in assay [1] (benzamidine concentration in activation solution 4.4 mM), 357.67 s; in assay [1] (benzamidine concentration in activation solution 6.6 mM) it was 422.50 s; in assay [2] (benzamidine concentration in lyophilizate 1.1 mM) it was 339.33 s; in assay [2] (benzamidine concentration in lyophilizate 2.2 mM) it was 495.00 s. Besides, in assay [2] (0-2.2 mM in lyophilizate, FIG. 1), the “Response of clotting time to benzamidine concentration in lyophilizate (dose-response curve)” value is on record as “linear”.

As for `[Ca+2].[Cl-].[Cl-]` [CaCl2, calcium chloride], the Clotting time stood at 199.00 s in assay [3] (CaCl2 concentration in activation solution 14 mM), 154.00 s in assay [3] (CaCl2 concentration in activation solution 22 mM), 166.00 s in assay [3] (CaCl2 concentration in activation solution 30 mM) and 203.33 s in assay [3] (CaCl2 concentration in activation solution 40 mM).

Source of the values: patent US20260169012A1, “WHOLE BLOOD CONTROL SAMPLE SYSTEMS AND METHOD OF PREPARING AND USING THE SAME” (Perosphere Technologies Inc., priority 2020, published 2026).
